Tests used:
Type in all cases: functional
[1] = tested on: Rattus norvegicus; experiment: Anti-inflammatory activity in sc dosed Sprague-Dawley Rattus norvegicus (rat) assessed as inhibition of carrageenan-induced paw edema administered at 1 hr prior to carrageenan injection measured at 4 hr post-carrageenan challenge by water plethysmometer
[2] = tested on: Rattus norvegicus; experiment: Anti-inflammatory activity in sc dosed Sprague-Dawley Rattus norvegicus (rat) assessed as inhibition of carrageenan-induced paw edema administered at 1 hr prior to carrageenan injection measured at 3 hr post-carrageenan challenge by water plethysmometer
[3] = tested on: Rattus norvegicus; experiment: Anti-inflammatory activity in sc dosed Sprague-Dawley Rattus norvegicus (rat) assessed as inhibition of carrageenan-induced paw edema administered at 1 hr prior to carrageenan injection measured at 2 hr post-carrageenan challenge by water plethysmometer
[4] = tested on: Rattus norvegicus; experiment: Anti-inflammatory activity in sc dosed Sprague-Dawley Rattus norvegicus (rat) assessed as inhibition of carrageenan-induced paw edema administered at 1 hr prior to carrageenan injection measured at 1 hr post-carrageenan challenge by water plethysmometer
[5] = tested on: Rattus norvegicus; experiment: Anti-inflammatory activity in Sprague-Dawley Rattus norvegicus (rat) assessed as inhibition of carrageenan-induced paw edema at 70 mg/kg, sc administered at 1 hr prior to carrageenan injection measured at 4 hr post-carrageenan challenge by water plethysmometer; conditions: route subcutaneous
[6] = tested on: Rattus norvegicus; experiment: Anti-inflammatory activity in Sprague-Dawley Rattus norvegicus (rat) assessed as inhibition of carrageenan-induced paw edema at 70 mg/kg, sc administered at 1 hr prior to carrageenan injection measured at 3 hr post-carrageenan challenge by water plethysmometer; conditions: route subcutaneous
[7] = tested on: Rattus norvegicus; experiment: Anti-inflammatory activity in Sprague-Dawley Rattus norvegicus (rat) assessed as inhibition of carrageenan-induced paw edema at 70 mg/kg, sc administered at 1 hr prior to carrageenan injection measured at 2 hr post-carrageenan challenge by water plethysmometer; conditions: route subcutaneous
[8] = tested on: Rattus norvegicus; experiment: Anti-inflammatory activity in Sprague-Dawley Rattus norvegicus (rat) assessed as inhibition of carrageenan-induced paw edema administered at 70 mg/kg, sc at 1 hr prior to carrageenan injection measured at 1 hr post-carrageenan challenge by water plethysmometer; conditions: route subcutaneous

SMILES	inhibition (INH) [1] [%]	inhibition (INH) [2] [%]	inhibition (INH) [3] [%]	inhibition (INH) [4] [%]	inhibition in vivo at 70 mg/kg [5] [%]	inhibition in vivo at 70 mg/kg [6] [%]	inhibition in vivo at 70 mg/kg [7] [%]	inhibition in vivo at 70 mg/kg [8] [%]
COc1ccc(-n2cc(-c3ccccc3)c3c(N/N=C/c4ccccc4)ncnc32)cc1	66.19	62.68	30.77	23.04	–	–	–	–
COc1ccc(-n2cc(-c3ccccc3)c3c(-n4nc(C)cc4C)ncnc32)cc1	61.9	35.66	23.85	7.82	–	–	–	–
Cc1ccc(-n2cc(-c3ccccc3)c3c2ncn2c(C)nnc32)cc1	32.85	29.5	18.85	11.74	–	–	–	–
CC(C)Cc1ccc(C(C)C(=O)O)cc1 (stereo unspecified) [IBUPROFEN]	–	–	–	–	69.5	60.7	45	6.08
COc1ccc(-n2cc(-c3ccccc3)c3c2ncn2c(C)nnc32)cc1	35.98	27.8	0.5416	15.94	–	–	–	–
Cc1ccc(-n2c(-c3ccccc3)c(-c3ccccc3)c3c2ncn2c(=S)[nH]nc32)cc1	23.81	17.27	10.38	0	–	–	–	–
Cc1ccc(-n2cc(-c3ccccc3)c3c(NN)ncnc32)cc1	39.21	45.4	0	0	–	–	–	–
COc1ccc(-n2c(-c3ccccc3)c(-c3ccccc3)c3c2ncn2c(C)nnc32)cc1	28.25	14.15	0	0	–	–	–	–
COc1ccc(-n2cc(-c3ccccc3)c3c(NN)ncnc32)cc1	50.26	41.73	8.85	23.04	–	–	–	–
Cc1ccc(-n2c(-c3ccccc3)c(-c3ccccc3)c3c2ncn2cnnc32)cc1	44.44	15.07	0	0	–	–	–	–
COc1ccc(-n2c(-c3ccccc3)c(-c3ccccc3)c3c(N/N=C/c4ccccc4)ncnc32)cc1	62.96	54.04	32.31	17.39	–	–	–	–
COc1ccc(-n2c3c(c(-c4ccccc4)c2-c2ccccc2)C2=NNC(=O)CN2C=N3)cc1	32.8	15.44	0	0	–	–	–	–
Cc1ccc(-n2c3c(c(-c4ccccc4)c2-c2ccccc2)C2=NNC(=O)CN2C=N3)cc1	34.92	28.31	23.08	17.39	–	–	–	–
Cc1ccc(-n2cc(-c3ccccc3)c3c2ncn2c(=S)[nH]nc32)cc1	39.21	33.8	19.23	3.04	–	–	–	–
Cc1ccc(-n2c(-c3ccccc3)c(-c3ccccc3)c3c(NN)ncnc32)cc1	18.57	29.6	0	0	–	–	–	–
Cc1ccc(-n2c(-c3ccccc3)c(-c3ccccc3)c3c2ncn2nnnc32)cc1	31.59	26.83	11.54	5.65	–	–	–	–
Cc1ccc(-n2c(-c3ccccc3)c(-c3ccccc3)c3c2ncn2c(=O)[nH]nc32)cc1	42.85	19.7	0	0	–	–	–	–

SMILES	inhibition (INH) [1] [%]	inhibition (INH) [2] [%]	inhibition (INH) [3] [%]	inhibition (INH) [4] [%]	inhibition in vivo at 70 mg/kg [5] [%]	inhibition in vivo at 70 mg/kg [6] [%]	inhibition in vivo at 70 mg/kg [7] [%]	inhibition in vivo at 70 mg/kg [8] [%]
COc1ccc(-n2cc(-c3ccccc3)c3c2ncn2cnnc32)cc1	36.19	33.46	0	0	–	–	–	–
COc1ccc(-n2c(-c3ccccc3)c(-c3ccccc3)c3c2ncn2cnnc32)cc1	47.62	27.94	15.77	8.69	–	–	–	–
Cc1ccc(-n2cc(-c3ccccc3)c3c(-n4nc(C)cc4C)ncnc32)cc1	59.25	31.37	2.56	8.7	–	–	–	–
COc1ccc(-n2c(-c3ccccc3)c(-c3ccccc3)c3c2ncn2nnnc32)cc1	39.21	19.7	0	0	–	–	–	–
COc1ccc(-n2c(-c3ccccc3)c(-c3ccccc3)c3c2ncn2c(=O)[nH]nc32)cc1	36.5	18.5	10.38	1.45	–	–	–	–
COc1ccc(-n2c(-c3ccccc3)c(-c3ccccc3)c3c(-n4nc(C)cc4C)ncnc32)cc1	74.6	63.24	6.41	0	–	–	–	–
Cc1ccc(-n2cc(-c3ccccc3)c3c(Cl)ncnc32)cc1	18.25	31.25	1.92	1.3	–	–	–	–
COc1ccc(-n2c(-c3ccccc3)c(-c3ccccc3)c3c2ncn2c(=S)[nH]nc32)cc1	34.6	19.49	20.38	7.39	–	–	–	–
Cc1ccc(-n2cc(-c3ccccc3)c3c(N/N=C/c4ccccc4)ncnc32)cc1	41.8	27.7	0	0	–	–	–	–
Cc1ccc(-n2c(-c3ccccc3)c(-c3ccccc3)c3c(N/N=C/c4ccccc4)ncnc32)cc1	32.8	15.44	0	0	–	–	–	–
COc1ccc(-n2cc(-c3ccccc3)c3c2ncn2c(=S)[nH]nc32)cc1	47.62	28.31	0	0	–	–	–	–
COc1ccc(-n2c(-c3ccccc3)c(-c3ccccc3)c3c(NN)ncnc32)cc1	62.38	61.4	16.92	13.48	–	–	–	–
Cc1ccc(-n2c(-c3ccccc3)c(-c3ccccc3)c3c2ncn2c(C)nnc32)cc1	23.81	16.91	10	7.39	–	–	–	–
Cc1ccc(-n2c(-c3ccccc3)c(-c3ccccc3)c3c(Cl)ncnc32)cc1	28.59	31.43	10	3.92	–	–	–	–
COc1ccc(-n2cc(-c3ccccc3)c3c(Cl)ncnc32)cc1	18.89	32.9	17.3	13.4	–	–	–	–
COc1ccc(-n2c(-c3ccccc3)c(-c3ccccc3)c3c(Cl)ncnc32)cc1	45.39	33.64	0	0	–	–	–	–
Cc1ccc(-n2cc(-c3ccccc3)c3c2ncn2cnnc32)cc1	28.57	10.48	0	0	–	–	–	–
